# Reference: patent publication US20240109853A1 (Shanghai Yao Yuan Biotechnology Co., Ltd., priority 2020, published 2024)
# Key:
# ALPK1 = ALPK1 (Homo sapiens (Human), UniProt Q96QP1); assay: ALPK1 in vitro kinase assay (HTRF of TIFA phosphorylation); assay type: biochemical
# [1] = tested on: ALPK1-dependent NFκB reporter gene activation in HEK293 cells stably expressing an NF-kB reporter (G9 cells); assay: NFκB gene reporter alkaline phosphatase assay; assay type: cell-based; conditions: Homo sapiens, HEK293; read-out: NFkB assay IC50
# In short: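 Inhibition of ALPK1-driven NF-kB activation is measured as reduced reporter phosphatase activity after agonist challenge with D-glycero-D-manno-6-fluoro-heptose-1β-S-ADP. Cells receive serially diluted compound 30 min beforehand. Values are IC50s from non-linear regression.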
# ALPK1, sequence (Q96QP1 whole entry): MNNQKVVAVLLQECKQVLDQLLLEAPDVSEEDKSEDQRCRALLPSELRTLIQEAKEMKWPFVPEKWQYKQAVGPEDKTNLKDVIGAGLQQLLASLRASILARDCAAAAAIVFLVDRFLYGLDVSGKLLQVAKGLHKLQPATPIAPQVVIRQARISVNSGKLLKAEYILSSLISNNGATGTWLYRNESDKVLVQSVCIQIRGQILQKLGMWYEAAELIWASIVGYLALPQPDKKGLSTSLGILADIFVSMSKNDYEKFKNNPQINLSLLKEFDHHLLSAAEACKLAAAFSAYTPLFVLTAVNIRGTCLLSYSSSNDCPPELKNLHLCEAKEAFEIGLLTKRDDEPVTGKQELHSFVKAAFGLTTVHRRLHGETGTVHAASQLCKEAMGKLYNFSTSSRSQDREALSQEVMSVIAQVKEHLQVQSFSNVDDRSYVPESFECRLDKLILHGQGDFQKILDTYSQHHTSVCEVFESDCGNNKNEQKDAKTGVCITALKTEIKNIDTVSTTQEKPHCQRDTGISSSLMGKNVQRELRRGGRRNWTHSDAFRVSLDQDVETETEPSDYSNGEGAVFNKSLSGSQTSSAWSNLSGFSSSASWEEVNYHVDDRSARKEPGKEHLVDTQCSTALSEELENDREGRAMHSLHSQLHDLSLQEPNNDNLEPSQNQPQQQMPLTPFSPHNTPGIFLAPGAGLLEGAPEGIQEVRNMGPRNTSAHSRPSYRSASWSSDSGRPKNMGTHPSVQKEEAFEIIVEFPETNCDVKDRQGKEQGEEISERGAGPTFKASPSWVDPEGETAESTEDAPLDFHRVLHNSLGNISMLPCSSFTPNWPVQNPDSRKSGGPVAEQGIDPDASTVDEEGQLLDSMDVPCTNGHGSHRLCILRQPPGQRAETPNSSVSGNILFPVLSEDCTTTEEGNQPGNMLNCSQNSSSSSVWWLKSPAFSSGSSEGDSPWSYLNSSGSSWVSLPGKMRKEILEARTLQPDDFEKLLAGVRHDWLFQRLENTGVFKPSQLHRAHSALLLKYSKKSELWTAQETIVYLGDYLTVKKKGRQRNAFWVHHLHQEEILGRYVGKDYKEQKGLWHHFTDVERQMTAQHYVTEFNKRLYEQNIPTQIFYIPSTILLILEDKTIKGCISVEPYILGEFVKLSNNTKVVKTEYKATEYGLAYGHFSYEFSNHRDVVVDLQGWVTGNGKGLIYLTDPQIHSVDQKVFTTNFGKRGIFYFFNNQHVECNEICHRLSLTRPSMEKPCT
Structure (SMILES),IC50 (ALPK1),IC50 [1]
"CC(C)(c1ccc(Br)cc1)c1csc(NC(=O)NCCCN)n1 [Example A061, 1-(3-aminopropyl)-3-(4-(2-(4-bromophenyl)propan-2-yl)thiazol-2-yl)urea]",195 nM,1990 nM
"COc1ccc(C(C)(C)c2csc(NC(=O)NCc3ccc(N4CC5CC4CN5)cc3)n2)cc1 (stereo not shown) [Example A062, 1-(4-(2,5-diazabicyclo[2.2.1]heptan-2-yl)benzyl)-3-(4-(2-(4-methoxyphenyl)propan-2-yl)thiazol-2-yl)urea]",60 nM,1330 nM
"COc1ccc(C(C)(C)c2csc(NC(=O)NCc3ccc(N4CCNC(C)C4)c(C(N)=O)c3)n2)cc1 (stereo not shown) [Example A063, 5-((3-(4-(2-(4-methoxyphenyl)propan-2-yl)thiazol-2-yl)ureido)methyl)-2-(3-methylpiperazin-1-yl)benzamide]",29 nM,2910 nM
"COc1ccc(C(C)(C)c2csc(NC(=O)NCc3ccc(N4CC5CC4CN5)c(C(N)=O)c3)n2)cc1 (stereo not shown) [Example A064, 2-(2,5-diazabicyclo[2.2.1]heptan-2-yl)-5-((3-(4-(2-(4-methoxyphenyl)propan-2-yl)thiazol-2-yl)ureido)methyl)benza-mide]",41 nM,19700 nM
"CNC(=O)c1cc(CNC(=O)Nc2nc(C(C)(C)c3ccc(OC)cc3)cs2)ccc1N1CCNCC1 [Example A065, 5-((3-(4-(2-(4-methoxyphenyl)propan-2-yl)thiazol-2-yl)ureido)methyl)-N-methyl-2-(piperazin-1-yl)benzamide]",30 nM,4440 nM
"CC(C)(c1ccc(Br)cc1)c1csc(NC(=O)NCCS(C)(=O)=O)n1 [Example A066, 1-(4-(2-(4-bromophenyl)propan-2-yl)thiazol-2-yl)-3-(2-(methylsulfonyl)ethyl)urea]",126 nM,10500 nM
"CC(C)(c1ccc(I)cc1)c1csc(NC(=O)NCc2ccc(N3CCNCC3)cc2)n1 [Example A067, 1-(4-(2-(4-iodophenyl)propan-2-yl)thiazol-2-yl)-3-(4-(piperazin-1-yl)benzyl)urea]",28 nM,1110 nM
"COc1ccc(C(C)(C)c2csc(NC(=O)NCCCC(=O)NC3CCN(C)CC3)n2)cc1 [Example A070, 4-(3-(4-(2-(4-methoxyphenyl)propan-2-yl)thiazol-2-yl)ureido)-N-(1-methylpiperidin-4-yl)butanamide]",140 nM,16900 nM
"COc1ccc(C(C)(C)c2csc(NC(=O)NCCOCCN3CCC(N)C3)n2)cc1 (stereo not shown) [Example A072, 1-(2-(2-(3-aminopyrrolidin-1-yl)ethoxy)ethyl)-3-(4-(2-(4-methoxyphenyl)propan-2-yl)thiazol-2-yl)urea]",143 nM,1450 nM
"CC(NC(=O)Nc1nc(C(C)(C)c2ccc(Br)cc2)cs1)c1ccc(N2CCNCC2)cc1 (stereo not shown) [Example A073, 1-(4-(2-(4-bromophenyl)propan-2-yl)thiazol-2-yl)-3-(1-(4-(piperazin-1-yl)phenyl)ethyl)urea]",85 nM,2790 nM
"Cc1ccc(C(C)(C)c2csc(NC(=O)NCc3ccc(N4CCNCC4)cc3)n2)cc1 [Example A075, 1-(4-(piperazin-1-yl)benzyl)-3-(4-(2-(p-tolyl)propan-2-yl)thiazol-2-yl)urea]",25 nM,267 nM
"CCC(C)(c1ccc(OC)cc1)c1csc(NC(=O)NC(C)c2ccc(N3CCNCC3)cc2)n1 (stereo not shown) [Example A076, 1-(4-(2-(4-methoxyphenyl)butan-2-yl)thiazol-2-yl)-3-(1-(4-(piperazin-1-yl)phenyl)ethyl)urea]",147 nM,4480 nM
"COc1ccc(C(C)(C)c2csc(NC(=O)NCCCCN3CCC(N)C3)n2)cc1 (stereo not shown) [Example A077, 1-(4-(3-aminopyrrolidin-1-yl)butyl)-3-(4-(2-(4-methoxyphenyl)propan-2-yl)thiazol-2-yl)urea]",180 nM,2970 nM
"CC(C)(c1ccc(Br)cc1)c1csc(NC(=O)NCc2cnc(N3CCC(O)C3)nc2)n1 (stereo not shown) [Example A079, 1-(4-(2-(4-bromophenyl)propan-2-yl)thiazol-2-yl)-3-((2-(3-hydroxypyrrolidin-1-yl)pyrimidin-5-yl)methyl)urea]",170 nM,1680 nM
"COc1ncc(CNC(=O)Nc2nc(C(C)(C)c3ccc(Br)cc3)cs2)cn1 [Example A080, 1-(4-(2-(4-bromophenyl)propan-2-yl)thiazol-2-yl)-3-((2-methoxypyrimidin-5-yl)methyl)urea]",172 nM,13300 nM
"CC(C)(c1ccc(Br)cc1)c1csc(NC(=O)NCc2cnc(NCCN)nc2)n1 [Example A081, 1-((2-((2-aminoethyl)amino)pyri-midin-5-yl)methyl)-3-(4-(2-(4-bromophenyl)propan-2-yl)thiazol-2-yl)urea]",17 nM,1840 nM

Structure (SMILES),IC50 (ALPK1),IC50 [1]
"CC(C)(c1ccc(Br)cc1)c1csc(NC(=O)NCc2cnc(N3CCC(O)CC3)nc2)n1 [Example A082, 1-(4-(2-(4-bromophenyl)propan-2-yl)thiazol-2-yl)-3-((2-(4-hydroxypiperidin-1-yl)pyrimidin-5-yl)methyl)urea]",125 nM,6150 nM
"COc1ccc(C(C)(C)c2csc(NC(=O)NCc3cnc(N4CCC(O)C4)nc3)n2)cc1 (stereo not shown) [Example A083, 1-((2-(3-hydroxypyrrolidin-1-yl)pyrimidin-5-yl)methyl)-3-(4-(2-(4-methoxyphenyl)propan-2-yl)thiazol-2-yl)urea]",111 nM,680 nM
"CC(C)(c1ccc(Cl)cc1)c1csc(NC(=O)NCc2cnc(N3CCNCC3)nc2)n1 [Example A084, 1-(4-(2-(4-chlorophenyl)propan-2-yl)thiazol-2-yl)-3-((2-(piperazin-1-yl)pyrimidin-5-yl)methyl)urea]",22 nM,340 nM
"CC(C)(c1ccc(F)cc1)c1csc(NC(=O)NCc2cnc(N3CCNCC3)nc2)n1 [Example A085, 1-(4-(2-(4-fluorophenyl)propan-2-yl)thiazol-2-yl)-3-((2-(piperazin-1-yl)pyrimidin-5-yl)methyl)urea]",85 nM,490 nM
"COc1ccc(C(C)(C)c2csc(NC(=O)NCc3cnc(N4CCNCC4)nc3)n2)cc1 [Example A086, 1-(4-(2-(4-methoxyphenyl)propan-2-yl)thiazol-2-yl)-3-((2-(piperazin-1-yl)pyrimidin-5-yl)methyl)urea]",16 nM,390 nM
"CCOc1ccc(C(C)(C)c2csc(NC(=O)NCc3cnc(N4CCNCC4)nc3)n2)cc1 [Example A087, 1-(4-(2-(4-ethoxyphenyl)propan-2-yl)thiazol-2-yl)-3-((2-(piperazin-1-yl)pyrimidin-5-yl)methyl)urea]",89 nM,1740 nM
"CC(C)(c1ccc(Br)cc1)c1csc(NC(=O)NCc2cnc(N3CCNCC3)nc2)n1 [Example A088, 1-(4-(2-(4-bromophenyl)propan-2-yl)thiazol-2-yl)-3-((2-(piperazin-1-yl)pyrimidin-5-yl)methyl)urea compound with methane (1:1)]",13 nM,1450 nM
"Cc1nc(N2CCNCC2)ncc1CNC(=O)Nc1nc(C(C)(C)c2ccc(Br)cc2)cs1 [Example A089, 1-(4-(2-(4-bromophenyl)propan-2-yl)thiazol-2-yl)-3-((4-methyl-2-(piperazin-1-yl)pyrimidin-5-yl)methyl)urea]",26 nM,1190 nM
"CC(C)(c1ccc(Br)cc1)c1csc(NC(=O)NCc2ccnc(N3CCNCC3)n2)n1 [Example A090, 1-(4-(2-(4-bromophenyl)propan-2-yl)thiazol-2-yl)-3-((2-(piperazin-1-yl)pyrimidin-4-yl)methyl)urea]",178 nM,1110 nM
"CC(C)(c1ccc(Br)cc1)c1csc(NC(=O)NCc2cnc(N3CCCNCC3)nc2)n1 [Example A091, 1-((2-(1,4-diazepan-1-yl)pyrimidin-5-yl)methyl)-3-(4-(2-(4-bromophenyl)propan-2-yl)thiazol-2-yl)urea]",135 nM,3450 nM
"CC(C)(c1ccc(Br)cc1)c1csc(NC(=O)NCc2ccc(N3CCNCC3)nc2)n1 [Example A092, 1-(4-(2-(4-bromophenyl)propan-2-yl)thiazol-2-yl)-3-((6-(piperazin-1-yl)pyridin-3-yl)methyl)urea]",20 nM,570 nM
"CC(C)(c1ccc(Br)cc1)c1csc(NC(=O)NCc2cnc(N3CCNCC3)cn2)n1 [Example A093, 1-(4-(2-(4-bromophenyl)propan-2-yl)thiazol-2-yl)-3-((5-(piperazin-1-yl)pyrazin-2-yl)methyl)urea]",9 nM,320 nM
"CC(C)(c1ccc(Br)cc1)c1csc(NC(=O)NCc2cc(N3CCNCC3)ncn2)n1 [Example A094, 1-(4-(2-(4-bromophenyl)propan-2-yl)thiazol-2-yl)-3-((6-(piperazin-1-yl)pyrimidin-4-yl)methyl)urea]",73 nM,1290 nM
"Cc1cc(CNC(=O)Nc2nc(C(C)(C)c3ccc(Br)cc3)cs2)ccc1N1CCNCC1 [Example A096, 1-(4-(2-(4-bromophenyl)propan-2-yl)thiazol-2-yl)-3-(3-methyl-4-(piperazin-1-yl)benzyl)urea]",69 nM,1430 nM
"CC(C)(c1ccc(Br)cc1)c1csc(NC(=O)NCc2ccc(N3CCNCC3)c(N)c2)n1 [Example A098, 1-(3-amino-4-(piperazin-1-yl)benzyl)-3-(4-(2-(4-bromophenyl)propan-2-yl)thiazol-2-yl)urea]",31 nM,1070 nM
"CC(C)(c1ccc(Br)cc1)c1csc(NC(=O)NCc2cnc(N3CCC(N)CC3)nc2)n1 [Example A099, 1-((2-(4-aminopiperidin-1-yl)pyrimidin-5-yl)methyl)-3-(4-(2-(4-bromophenyl)propan-2-yl)thiazol-2-yl)urea]",13 nM,450 nM
